This is an account of results in US7446111B2, “Amorphous rapamycin 42-ester with 3-hydroxy-2-(hydroxymethyl)-2-methylpropionic acid and its pharmaceutical compositions” (Wyeth, priority 2003, dated 2008).

Data set [1] in a line: physchem. It is filed as physicochemical. The conditions noted are these: for Solubility: pH 4.6. How it is done: The solutions were mixed and maintained at room temperature and a pH of about 4.6. The vials were then shaken on a rotary shaker for 24 hours.
Samples (2 mL) of both of the amorphous and crystalline solutions were withdrawn at selected time intervals (0, 0.5, 3, 5, and 24 h), filtered through a 0.2 μm filter and analyzed at room temperature using high performance liquid chromatography (HPLC) (Table 1). The solubility of the samples was calculated using the data provided in the HPLC chromatograph and techniques used by those skilled in the art and is provided in Table 3.

Data set [2] is described as follows: physchem. It is filed as physicochemical. How it is done:
A 0.005 M citric acid solution containing 0.2% sodium lauryl sulfate and 0.001% calcium EDTA was adjusted to a pH of about 4.73.
The solutions were then mixed, maintained at room temperature, and shaken on a rotary shaker for about 24 to about 48 hours.
Samples (2 mL) of both the amorphous and crystalline solutions were withdrawn at 24 h and 48 h, filtered through a 0.2 μm filter and analyzed at room temperature using high performance liquid chromatography (HPLC) (Table 4). Solubilities of the samples were then calculated using the data provided in the HPLC chromatograph and techniques used by those of skilled in the art and is provided in Table 4.

[3] abbreviates: 5° C., 1 Week, sample prepared by precipitation.
The mark [4] stands for this setting: 40° C./75% RH, 1 Week, sample prepared by precipitation.
Where [5] appears, read: Initial, sample prepared by precipitation.
Setting [6] is: RT, 1 Week, sample prepared by precipitation.
Where [7] appears, read: 25 °C, pH 4.6, aqueous buffer, thermodynamic from solid.
[8] abbreviates: 25 °C, pH 4.73, aqueous with cosolvent or surfactant or cyclodextrin, thermodynamic from solid.
Where [9] appears, read: 5° C., 1 week, sample prepared by evaporation.
The mark [10] stands for this setting: 5° C., 2 weeks, sample prepared by evaporation.
Setting [11] is: 40° C./75% RH, 1 week, sample prepared by evaporation.
[12] abbreviates: 40° C./75% RH, 2 weeks, sample prepared by evaporation.
The mark [13] stands for this setting: Initial, sample prepared by evaporation.

Values after ≈ are worked out from the molar mass of the structure shown. Read-outs that look alike come from different tables or passages of the source.

`COC1CC2CCC(C)C(O)(O2)C(=O)C(=O)N2CCCCC2C(=O)OC(C(C)CC2CCC(OC(=O)C(C)(CO)CO)C(OC)C2)CC(=O)C(C)/C=C(\C)C(O)C(OC)C(=O)C(C)CC(C)/C=C/C=C/C=C/1C` (centres unmarked) [Amorphous (batch C4), rapamycin 42-ester with 3-hydroxy-2-(hydroxymethyl)-2-methylpropionic acid]: the SLI came out at 0.15% under setting [3], 0.32% under setting [4], 0.20% under setting [5] and 0.12% under setting [6]. Further, the Strength runs as follows: under setting [3], 98.71%; under setting [4], 91.36%; under setting [5], 97.93%; under setting [6], 97.49%. For the same compound, the “Total Imp” value under setting [3] came out at 0.44%, the “Total Imp” value under setting [4] came to 0.70%, the “Total Imp” value under setting [5] is given as 0.41% and the “Total Imp” value under setting [6] worked out at 0.37%. Further, the SECO under setting [4] turned out to be 0.04%.
As to `CO[C@H]1C[C@@H]2CC[C@@H](C)[C@@](O)(O2)C(=O)C(=O)N2CCCC[C@H]2C(=O)O[C@H]([C@H](C)C[C@@H]2CC[C@@H](OC(=O)C(C)(CO)CO)[C@H](OC)C2)CC(=O)[C@H](C)/C=C(\C)[C@@H](O)[C@@H](OC)C(=O)[C@H](C)C[C@H](C)/C=C/C=C/C=C/1C` [Crystalline, rapamycin 42-ester with 3-hydroxy-2-(hydroxymethyl)-2-methylpropionic acid], in data set [1] (0 h), the Solubility (commonly how much of the substance goes into solution per volume) worked out at 0 µg/mL. Further, in data set [1] (setting [7]), the solubility (usually the concentration that dissolves in the medium under given conditions) at 0.5 h was 0.26 µg/mL (≈ 0.252 µM), the solubility at 3 h came out at 0.29 µg/mL (≈ 0.281 µM), the solubility at 5 h worked out at 0.23 µg/mL (≈ 0.223 µM) and the solubility at 24 h was determined as 0.61 µg/mL (≈ 0.592 µM). For the same compound, in data set [2] (setting [8]), the solubility at 24 h is 640 µg/mL (≈ 621 µM) and the solubility at 48 h was 640 µg/mL (≈ 621 µM).
On to `COC1CC2CCC(C)C(O)(O2)C(=O)C(=O)N2CCCCC2C(=O)OC(C(C)CC2CCC(OC(=O)C(C)(CO)CO)C(OC)C2)CC(=O)C(C)/C=C(\C)C(O)C(OC)C(=O)C(C)CC(C)/C=C/C=C/C=C/1C` (centres unmarked) [amorphous rapamycin 42-ester with 3-hydroxy-2-(hydroxymethyl] [rapamycin 42-ester with 3-hydroxy-2-(hydroxymethyl)-2-methylpropionic acid], for which the “Temperature up to which the amorphous form is stable” value was “up to 5 °C”. In addition, in data set [1], the “Solubility relative to crystalline form” value came out at 3 times, the “Solubility relative to crystalline form (general statement)” value is reported as “at least 3 times” and the Solubility entry was “about 1.88 μg/mL”. Further, the “Solubility relative to crystalline form” value in data set [2] is reported as “about 3.5 times”. In data set [2] (pH 4.73), the Solubility entry was “about 2.17 mg/mL”.
Consider `CO[C@H]1C[C@@H]2CC[C@@H](C)[C@@](O)(O2)C(=O)C(=O)N2CCCC[C@H]2C(=O)O[C@H]([C@H](C)C[C@@H]2CC[C@@H](OC(=O)C(C)(CO)CO)[C@H](OC)C2)CC(=O)[C@H](C)/C=C(\C)[C@@H](O)[C@@H](OC)C(=O)[C@H](C)C[C@H](C)/C=C/C=C/C=C/1C` [batch A1, rapamycin 42-ester with 3-hydroxy-2-(hydroxymethyl)-2-methylpropionic acid], for which the “SLI*” value is given as 3.91% under setting [9], 3.74% under setting [10], 3.93% under setting [11] and 3.72% under setting [12]. For the same compound, the Strength is 95.20% under setting [9]; 92.56% under setting [10]; 94.16% under setting [11]; 90.55% under setting [12]; “Strength = 98.33%,” under setting [13]. In addition, the “Total Imp” value is, setting by setting: under setting [9], 5.07%; under setting [10], 4.42%; under setting [11], 5.15%; under setting [12], 4.60%; under setting [13], 0.46%. The SLI under setting [13] stood at 0.19%.
